Measured values: patent US5624937A, “Chemical compounds as inhibitors of amyloid beta protein production” (Eli Lilly and Company, priority 1995, dated 1997)

Test system: Aβ production (APP-751 Swedish mutation transfected cells 293 751 SWE and CHO 751 SWE)
Assay: Aβ production inhibition activity in cells (Aβ ELISA of conditioned media, normalized for MTT cytotoxicity)
Type: cell-based
Settings: 2 h pretreatment + 2 h, normalized to MTT, mean of at least six replicate assays, cell line not stated, read-out: IC50 (concentration of test compound required to inhibit Aβ production by 50%)
Protocol: Two cell lines (human kidney cell line 293 and Chinese hamster ovary cell line CHO) were stably transfected with the gene for APP-751 containing the double mutation Lys651 -Met652 to Asn651 -Leu652 (APP-751 numbering) commonly called the Swedish mutation using the method described in Citron et al., (1992) Nature 360: 672-674. The transfected cell lines were designated as 293 751 SWE and CHO 751 SWE, and were plated in Corning 96 well plates at 2.5×10^4 or 1×10^4 cells per well respectively in Dulbecco's minimal essential media plus 10% fetal bovine serum. Following overnight incubation at 37° C. in an incubator equilibrated with 10% carbon dioxide (CO2), the media were removed and replaced with 200 μL per well of media containing a test compound. After a two hour pretreatment period, the media were again removed and replaced with fresh media containing the test compound and the cells were incubated for an additional two hours.
Test compound stocks were prepared in DMSO such that at the final concentration used in the treatment, the concentration of DMSO did no exceed 0.5%. After treatment, plates were centrifuged in a Beckman GPR at 1200 rpm for five minutes at room temperature to pellet cellular debris from the conditioned media. From each well, 100μL of conditioned media were transferred into an ELISA plate precoated with antibody 266 against βAP-13-28 (Seubert et al , supra.) and stored at 4° C. overnight. An ELISA assay employing labeled antibody 6C6 (against βAP-1-16) was run the next day to measure the amount of Aβ produced.
Cytotoxic effects of the test compounds were measured by a modification of the method of Hansen et al., (1989) J. Immun. Meth. 119: 203-210. To the cells remaining in the tissue culture plate, was added 25 μL of a 3,(4,5-dimethylthiazol-2-yl)2,5-diphenyltetrazolium bromide (MTT) stock solution (5 mg/mL) to a final concentration of 1 mg/mL. Cells were incubated at 37° C. for one hour, and cellular activity was stopped by the addition of an equal volume of MTT lysis buffer (20% w/v sodium dodecylsulfate in 50% DMF, pH 4.7). Complete extraction was achieved by overnight shaking at room temperature. The difference in the OD562 nm and the OD650 nm was measured in a Molecular Devices UVmax microplate reader as an indicator of the cellular viability.
The results of the Aβ ELISA were fit to a standard curve and expressed as ng/mL Aβ peptide. In order to normalize for cytotoxicity, these Aβ results were divided by the MTT results and expressed as a percentage of the results from a drug-free control.
The test compounds were assayed for Aβ production inhibition activity in cells at 10 μg/mL using the test. The results presented in Table 1 are the mean and standard deviation of at least six replicate assays. IC50 means the concentration of test compound in micromoles/liter required to inhibit Aβ production by 50%.

SMILES	IC50
FC(F)(F)c1cc(NC(=S)Nc2ccc(Sc3ccc4ccccc4n3)cc2)ccc1Cl [Example 1, 1-[4-(2-quinolyl)thiophenyl]-3-(4-chloro-3-trifluoromethyphenyl)thiourea]	3.7 µM
CCOC(=O)c1cc(Sc2ccc(NC(=S)Nc3ccc(Cl)c(C(F)(F)F)c3)cc2)nc2ccccc12 [Example 2, 1-[4-(4-ethoxycarbonyl-2-quinolylthio)phenyl]-3-(4-chloro-3-trifluoromethylphenyl)thiourea]	3.1 µM
FC(F)(F)c1cc(NC(=S)Nc2ccc(Sc3ccc4cc(Cl)ccc4n3)cc2)ccc1Cl [Example 3, 1-[4-(6-Chloro-2-quinolylthio)phenyl]-3-(4-chloro-3-trifluoromethylphenyl)thiourea]	2.7 µM
FC(F)(F)c1cc(NC(=S)Nc2ccc(Sc3cc(-c4ccccc4)c4ccccc4n3)cc2)ccc1Cl [Example 4, 1-[4-(4-Phenyl-2-quinolylthio)phenyl]-3-(4-chloro-3-trifluoromethylphenyl)thiourea]	> 20 µM
COc1ccc2nc(Sc3ccc(NC(=S)Nc4ccc(Cl)c(C(F)(F)F)c4)cc3)ccc2c1 [Example 5, 1-[4-(6-Methoxy-2-quinolylthio)phenyl]-3-(4-chloro-3-trifluoromethylphenyl)thiourea]	4.4 µM
FC(F)(F)c1cc(NC(=S)Nc2ccc(Sc3ccnc4ccccc34)cc2)ccc1Cl [Example 6, 1-[4-(4-Quinolylthio)phenyl]-3-(4-chloro-3-trifluoromethylphenyl)thiourea]	4.7 µM
FC(F)(F)c1ccc2c(Sc3ccc(NC(=S)Nc4ccc(Cl)c(C(F)(F)F)c4)cc3)ccnc2c1 [Example 7, 1-[4-(7-Trifluoromethyl-4-quinolylthio)phenyl]-3-(4-chloro-3-trifluoromethylphenyl)thiourea]	4.5 µM
FC(F)(F)c1cc(NC(=S)Nc2ccc(Sc3ccc4ccccc4c3)cc2)ccc1Cl [Example 8, 1-[4-(2-Naphthylthio)phenyl]-3-(4-chloro-3-trifluoromethylphenyl)thiourea]	2.6 µM
FC(F)(F)c1cc(NC(=S)Nc2ccc(Sc3cccc4ccccc34)cc2)ccc1Cl [Example 9]	4.9 µM
FC(F)(F)c1cc(NC(=S)Nc2ccc(Sc3nc4ccccc4[nH]3)cc2)ccc1Cl [Example 10, 1-[4-(2-Benzimidazolylthio)phenyl]-3-(4-chloro-3-trifluoromethylphenyl)thiourea]	7.1 µM
FC(F)(F)c1cc(NC(=S)Nc2ccc(Sc3nc4ccccc4o3)cc2)ccc1Cl [Example 11, 1-[4-(2-Benzoxazolylthio)phenyl]-3-(4-chloro-3-trifluoromethylphenyl)thiourea]	12.5 µM
FC(F)(F)c1cc(NC(=S)Nc2ccc(Sc3nc4ccccc4s3)cc2)ccc1Cl [Example 12, 1-[4-(2-Benzothiazolylthio)phenyl]-3-(4-chloro-3-trifluoromethylphenyl)thiourea]	3.9 µM
FC(F)(F)c1cc(NC(=S)Nc2ccc(Sc3nc4cc(Cl)ccc4s3)cc2)ccc1Cl [Example 13, 1-[4-(5-Chloro-2-benzothiazolylthio)phenyl]-3-(4-chloro-3-trifluoromethylphenyl)thiourea]	1.7 µM
[O-][S+](c1ccc(NC(=S)Nc2ccc(Cl)c(C(F)(F)F)c2)cc1)c1ccc2ccccc2n1 (stereo not shown) [Example 14, 1-[4-(2-Quinolylsulfinyl)phenyl]-3-(4-chloro-3-trifluoromethylphenyl)thiourea]	12.1 µM
O=S(=O)(c1ccc(NC(=S)Nc2ccc(Cl)c(C(F)(F)F)c2)cc1)c1ccc2ccccc2n1 [Example 15, 1-[4-(2-Quinolylsulfonyl)phenyl]-3-(4-chloro-3-trifluoromethylphenyl)thiourea]	3.7 µM
FC(F)(F)c1cc(NC(=S)Nc2ccc(Nc3ccc4ccccc4n3)cc2)ccc1Cl [Example 16, 1-[4-(2-quinolylamino)phenyl]-3-(4-chloro-3-trifluoromethylphenyl)thiourea]	11.8 µM
FC(F)(F)c1cc(NC(=S)Nc2ccc(Oc3ccc4ccccc4n3)cc2)ccc1Cl [Example 17, 1-[4-(2-Quinolyloxy)phenyl]-3-(4-chloro-3-trifluoromethylphenyl)thiourea]	9.7 µM
O=C(Nc1ccc(Sc2ccc3ccccc3n2)cc1)Nc1ccc(Cl)c(C(F)(F)F)c1 [Example 18, 1-[4-(2-Quinolylthio)phenyl]-3-(4-chloro-3-trifluoromethylphenyl]urea]	> 20 µM
S=C(Nc1ccc(Sc2ccc3ccccc3n2)cc1)Nc1ccc(Cl)c(Cl)c1 [Example 19, 1-[4-(2-Quinolylthio)phenyl]-3-(3,4-dichlorophenyl)thiourea]	13.8 µM
FC(F)(F)c1cc(NC(=S)Nc2ccc(Sc3ccc(-c4ccccc4)nn3)cc2)ccc1Cl [Example 20]	4.4 µM
FC(F)(F)c1cc(NC(=S)Nc2ccc(Sc3ccccn3)cc2)ccc1Cl [Example 21]	8.3 µM
O=[N+]([O-])c1c(Sc2ccc(NC(=S)Nc3ccc(Cl)c(C(F)(F)F)c3)cc2)ccc2ncccc12 [Example 22]	4.3 µM
